Experimental data reported in ChEMBL document CHEMBL1201862, “PubChem BioAssay data set” (2004).
Blank lines part the entries; values can stand above or below the compound they belong to. The source made the active and inactive calls.

Assays:
[1] = tested on: BJ; assay: cytotoxicity toward BJ-TERT fibroblasts, dose response, cell-based, RAS-independent, luminescence (AID 1933); format: functional, Homo sapiens; details: Homo sapiens, BJ
[2] = tested on: BJ; assay: cells; format: functional, cell-based, Homo sapiens; details: Homo sapiens, BJ
[3] = tested on: BJ; assay: cytotoxicity toward BJ-TERT-LT-ST fibroblasts, dose response, cell-based, RAS-independent, luminescence (AID 1935); format: functional, Homo sapiens; details: Homo sapiens, BJ;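 also: BJ fibroblasts immortalized with TERT plus LT and ST oncogenes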
[4] = cytotoxicity toward DRD oncogenic fibroblasts, dose response, cell-based, non-viral oncogenic, luminescence (AID 1934); format: functional; details: Homo sapiens
[5] = tested on: CHO-K1; assay: (§1) Counterscreen for antagonists of the orexin 1 receptor (OX1R; HCRTR1): Homogeneous time resolved fluorescence (HTRF)-based cell-based dose response assay to identify antagonists of the parental CHO-K1 cell line. [Related pubchem assays (depositor defined):AID434989, AID435008, AID463079, AID485270, AID492963, AID492964, AID492965, AID493232, AID504699, AID504701]; format: functional; details: Cricetulus griseus
[6] = Luminescence Cell-Based Dose Retest to Confirm Inhibitors of Cancer Stem Cells. [Related pubchem assays (depositor defined):AID2717, AID2721]; format: functional; details: Homo sapiens
[7] = as §1, with “Fluorescence-based” for “Homogeneous time resolved fluorescence (HTRF)-based”, “cell-based high throughput” for “cell-based”, “CHO” for “CHO-K1”; format: functional
[8] = target: T1, Orexin/Hypocretin receptor type 1 (Homo sapiens, UniProt O43613); assay: Homogeneous Time Resolved Fluorescence (HTRF)-based cell-based high throughput dose response assay for antagonists of the orexin 1 receptor (OX1R; HCRTR1). [Related pubchem assays (depositor defined):AID434989, AID435008, AID463079, AID485270, AID492963, AID492964, AID492965, AID493232, AID504717, AID504718]; format: functional
T1 sequence (O43613 whole entry): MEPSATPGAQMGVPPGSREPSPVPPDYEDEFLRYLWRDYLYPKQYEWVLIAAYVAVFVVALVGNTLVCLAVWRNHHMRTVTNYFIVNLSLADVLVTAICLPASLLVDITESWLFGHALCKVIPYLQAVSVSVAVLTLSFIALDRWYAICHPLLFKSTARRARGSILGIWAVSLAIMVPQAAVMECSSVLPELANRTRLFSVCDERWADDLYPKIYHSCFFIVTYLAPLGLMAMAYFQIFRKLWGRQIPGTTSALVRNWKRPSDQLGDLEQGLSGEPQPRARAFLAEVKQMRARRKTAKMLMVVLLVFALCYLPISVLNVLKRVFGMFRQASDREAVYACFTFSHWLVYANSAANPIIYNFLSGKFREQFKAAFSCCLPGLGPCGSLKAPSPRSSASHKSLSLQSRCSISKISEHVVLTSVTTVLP

[9] = cytotoxicity in HEK-293T cells, dose response, cytotoxicity control for TCR NF-kB inhibitor project, luminescence, T-cell screen hits (AID 489026); format: functional, cell-based;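 also: cells exposed to compound about 14 hours before the viability readout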
[10] = target: T1, Orexin/Hypocretin receptor type 1; assay: Fluorescence-based cell-based high throughput dose response assay for antagonists of the orexin 1 receptor (OX1R; HCRTR1). [Related pubchem assays (depositor defined):AID434989, AID435008, AID463079, AID485270, AID492963, AID492964, AID492965, AID493232, AID504717, AID504718]; format: functional
[11] = target: T2, Orexin receptor type 2 (Homo sapiens, UniProt O43614); assay: Counterscreen assay for antagonists of the orexin 1 receptor (OX1R; HCRTR1): Fluorescence-based cell-based dose response assay for antagonists of the orexin 2 receptor (OX2R; HCRTR2), run by assay provider.; format: functional
[12] = target: T2, Orexin receptor type 2; assay: Counterscreen assay for antagonists of the orexin 1 receptor (OX1R; HCRTR1): Homogeneous Time Resolved Fluorescence (HTRF)-based cell-based dose response assay for antagonists of the orexin 2 receptor (OX2R; HCRTR2), run by assay provider.; format: functional
[13] = target: Paired box protein Pax-8 (Homo sapiens, UniProt Q06710); assay: inhibitors of PAX8-driven TPO luciferase reporter, dose response, RMG-I cells, cherry-pick (AID 687027); format: functional, cell-based;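 also: luciferase reporter driven by Pax8 target thyroperoxidase promoter measured by SteadyGlo luminescence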
[14] = target: Protein kinase C theta type (Homo sapiens, UniProt Q04759); assay: Navigating the Kinome. Panel member name: PRKCQ; format: functional
[15] = target: Serine/threonine-protein kinase PLK3 (Homo sapiens, UniProt Q9H4B4); format: functional
[16] = target: RAC-gamma serine/threonine-protein kinase (Homo sapiens, UniProt Q9Y243); format: functional
[17] = target: Serine/threonine-protein kinase PLK4 (Homo sapiens, UniProt O00444); format: functional;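 also: PLK4 measured as one member of a kinome-wide kinase profiling panel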
[18] = target: Serine/threonine-protein kinase pim-1 (Homo sapiens, UniProt P11309); format: functional
[19] = target: Aurora kinase A (Homo sapiens, UniProt O14965); format: functional;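 also: value from the Navigating the Kinome kinase panel profiling, panel entry STK6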
[20] = target: Fibroblast growth factor receptor 1 (Homo sapiens, UniProt P11362); format: functional
[21] = target: Insulin receptor (Homo sapiens, UniProt P06213); format: functional;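 also: insulin receptor kinase tested as one member of a kinome-wide kinase panel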
[22] = target: Serine/threonine-protein kinase pim-3 (Homo sapiens, UniProt Q86V86); format: functional;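 also: value obtained as one member of a broad kinase panel profiling effort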
[23] = target: Platelet-derived growth factor receptor beta (Homo sapiens, UniProt P09619); format: functional;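 also: value comes from a kinome panel, with PDGFRB tested as one panel member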
[24] = target: T3, Receptor-type tyrosine-protein kinase FLT3 (Homo sapiens, UniProt P36888); format: functional;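 also: FLT3 was tested as one member of a kinome-wide kinase panel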
T3 sequence (P36888 whole entry): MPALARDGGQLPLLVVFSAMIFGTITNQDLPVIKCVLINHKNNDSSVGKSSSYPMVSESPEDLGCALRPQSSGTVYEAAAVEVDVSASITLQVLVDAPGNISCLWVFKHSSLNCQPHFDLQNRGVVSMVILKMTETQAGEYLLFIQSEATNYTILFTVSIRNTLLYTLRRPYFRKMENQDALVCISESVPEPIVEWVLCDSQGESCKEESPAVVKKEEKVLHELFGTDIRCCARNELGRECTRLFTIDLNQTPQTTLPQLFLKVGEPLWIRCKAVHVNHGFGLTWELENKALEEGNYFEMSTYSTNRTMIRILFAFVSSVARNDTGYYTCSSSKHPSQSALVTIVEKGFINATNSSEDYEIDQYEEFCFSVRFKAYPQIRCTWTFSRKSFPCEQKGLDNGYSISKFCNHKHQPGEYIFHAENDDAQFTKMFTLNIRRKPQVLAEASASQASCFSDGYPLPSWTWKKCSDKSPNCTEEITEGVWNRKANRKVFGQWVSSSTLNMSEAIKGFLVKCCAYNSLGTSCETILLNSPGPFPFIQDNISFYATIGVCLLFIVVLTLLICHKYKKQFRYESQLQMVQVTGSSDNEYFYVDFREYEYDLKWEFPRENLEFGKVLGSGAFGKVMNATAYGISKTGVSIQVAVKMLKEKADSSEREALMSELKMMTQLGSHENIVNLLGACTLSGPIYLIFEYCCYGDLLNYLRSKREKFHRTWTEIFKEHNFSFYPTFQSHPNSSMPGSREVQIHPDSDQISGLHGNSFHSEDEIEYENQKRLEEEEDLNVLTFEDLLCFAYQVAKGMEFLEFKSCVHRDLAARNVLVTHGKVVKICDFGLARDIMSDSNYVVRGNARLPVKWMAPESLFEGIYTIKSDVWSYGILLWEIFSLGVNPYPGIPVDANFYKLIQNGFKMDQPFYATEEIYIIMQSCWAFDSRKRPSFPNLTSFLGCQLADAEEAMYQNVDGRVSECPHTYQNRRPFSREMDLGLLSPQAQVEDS

[25] = target: Serine/threonine-protein kinase Chk1 (Homo sapiens, UniProt O14757); format: functional;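 also: measured as one member of a kinome-wide kinase profiling panel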
[26] = target: Vascular endothelial growth factor receptor 2 (Homo sapiens, UniProt P35968); format: functional
[27] = target: Aurora kinase B (Homo sapiens, UniProt Q96GD4); format: functional
[28] = target: RAC-alpha serine/threonine-protein kinase (Homo sapiens, UniProt P31749); format: functional;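 also: AKT1 affinity measured as one member of a kinome-wide kinase profiling panel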
[29] = target: Cyclin-dependent kinase 19 (Homo sapiens, UniProt Q9BWU1); assay: Navigating the Kinome. Panel member name: CDC2L6; format: functional
[30] = target: Serine/threonine-protein kinase PLK1 (Homo sapiens, UniProt P53350); format: functional;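 also: PLK1 measured as one member of a kinome-wide profiling panel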
[31] = target: Cyclin-dependent kinase 9 (Homo sapiens, UniProt P50750); format: functional;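 also: value from the CDK9 entry of a kinome-spanning kinase panel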
[32] = target: cAMP-dependent protein kinase catalytic subunit alpha (Homo sapiens, UniProt P17612); format: functional
[33] = target: Macrophage colony-stimulating factor 1 receptor (Homo sapiens, UniProt P07333); format: functional;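 also: value comes from the Navigating the Kinome screening panel, CSF1R member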
[34] = target: Dual specificity tyrosine-phosphorylation-regulated kinase 1A (Homo sapiens, UniProt Q13627); format: functional;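 also: measured against DYRK1A as one member of a broad kinome profiling panel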
[35] = target: Multidrug resistance protein CDR1 (Candida albicans, UniProt P43071); assay: CaCDR1 efflux pump inhibitors in yeast, dose response, S. cerevisiae AD1-8u, singleplex, Cherry Pick1 hits (AID 588606); format: functional
[36] = target: Mitogen-activated protein kinase 9 (Homo sapiens, UniProt P45984); format: functional;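 also: value from a kinome panel profiling assay, MAPK9 panel entry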
[37] = target: Mitogen-activated protein kinase 12 (Homo sapiens, UniProt P53778); format: functional;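 also: measured as one member of a kinome-wide kinase profiling panel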
[38] = target: Cell division cycle 7-related protein kinase (Homo sapiens, UniProt O00311); format: functional;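 also: value obtained from a kinome-wide kinase panel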
[39] = target: Homeodomain-interacting protein kinase 2 (Homo sapiens, UniProt Q9H2X6); format: functional;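 also: measured within a kinome-wide kinase profiling panel, HIPK2 being one panel member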
[40] = target: T4, Interleukin-1 receptor-associated kinase 4 (Homo sapiens, UniProt Q9NWZ3); format: functional
T4 sequence (Q9NWZ3 whole entry): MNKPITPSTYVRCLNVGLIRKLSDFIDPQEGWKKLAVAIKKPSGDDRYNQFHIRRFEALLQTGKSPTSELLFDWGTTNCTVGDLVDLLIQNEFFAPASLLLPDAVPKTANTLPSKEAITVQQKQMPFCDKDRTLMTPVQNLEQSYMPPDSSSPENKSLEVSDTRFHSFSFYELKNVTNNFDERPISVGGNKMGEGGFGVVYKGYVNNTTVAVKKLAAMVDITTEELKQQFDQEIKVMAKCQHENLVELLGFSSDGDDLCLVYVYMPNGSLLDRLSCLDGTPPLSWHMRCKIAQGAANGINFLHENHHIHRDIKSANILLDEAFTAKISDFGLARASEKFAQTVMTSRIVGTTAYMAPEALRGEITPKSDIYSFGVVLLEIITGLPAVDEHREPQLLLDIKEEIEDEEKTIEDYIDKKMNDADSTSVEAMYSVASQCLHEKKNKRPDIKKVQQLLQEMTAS

[41] = target: Cyclin-dependent kinase 7 (Homo sapiens, UniProt P50613); format: functional;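 also: value comes from a kinome-wide kinase profiling panel in which CDK7 is one member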
[42] = target: Mitogen-activated protein kinase kinase kinase kinase 4 (Homo sapiens, UniProt O95819); format: functional
[43] = target: Cyclin-dependent kinase 5 (Homo sapiens, UniProt Q00535); format: functional;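 also: CDK5 measured as one member of a kinase profiling panel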
[44] = target: Cyclin-dependent kinase 8 (Homo sapiens, UniProt P49336); assay: Navigating the Kinome. Panel member name: CDK8; format: functional
[45] = target: Dual specificity protein kinase CLK4 (Homo sapiens, UniProt Q9HAZ1); format: functional
[46] = target: Tyrosine-protein kinase Lck (Homo sapiens, UniProt P06239); format: functional;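 also: lck was assayed as one member of a kinase panel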
[47] = target: Activin receptor type-1 (Homo sapiens, UniProt Q04771); assay: Navigating the Kinome. Panel member name: ACVR1; format: functional
[48] = target: Proto-oncogene tyrosine-protein kinase Src (Homo sapiens, UniProt P12931); format: functional;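 also: SRC entry within a kinome-wide kinase profiling panel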
[49] = target: Platelet-derived growth factor receptor alpha (Homo sapiens, UniProt P16234); assay: Navigating the Kinome. Panel member name: PDGFRA; format: functional
[50] = target: BDNF/NT-3 growth factors receptor (Homo sapiens, UniProt Q16620); format: functional;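 also: NTRK2 measured as one member of a broad kinome-wide kinase profiling panel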
[51] = target: Leukocyte tyrosine kinase receptor (Homo sapiens, UniProt P29376); assay: Navigating the Kinome. Panel member name: LTK; format: functional

Sequence of Cyclin-dependent kinase 9 (P50750 whole entry): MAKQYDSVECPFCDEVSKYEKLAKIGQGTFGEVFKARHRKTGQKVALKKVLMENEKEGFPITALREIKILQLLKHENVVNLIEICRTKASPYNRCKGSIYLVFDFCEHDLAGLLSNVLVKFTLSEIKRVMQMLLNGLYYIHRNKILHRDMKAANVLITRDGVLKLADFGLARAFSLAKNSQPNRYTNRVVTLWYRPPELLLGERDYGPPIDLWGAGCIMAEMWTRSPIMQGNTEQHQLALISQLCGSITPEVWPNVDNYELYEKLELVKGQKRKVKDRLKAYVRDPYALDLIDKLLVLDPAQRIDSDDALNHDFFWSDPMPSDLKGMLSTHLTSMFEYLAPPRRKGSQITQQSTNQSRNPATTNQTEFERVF
Sequence of Platelet-derived growth factor receptor beta (P09619 whole entry): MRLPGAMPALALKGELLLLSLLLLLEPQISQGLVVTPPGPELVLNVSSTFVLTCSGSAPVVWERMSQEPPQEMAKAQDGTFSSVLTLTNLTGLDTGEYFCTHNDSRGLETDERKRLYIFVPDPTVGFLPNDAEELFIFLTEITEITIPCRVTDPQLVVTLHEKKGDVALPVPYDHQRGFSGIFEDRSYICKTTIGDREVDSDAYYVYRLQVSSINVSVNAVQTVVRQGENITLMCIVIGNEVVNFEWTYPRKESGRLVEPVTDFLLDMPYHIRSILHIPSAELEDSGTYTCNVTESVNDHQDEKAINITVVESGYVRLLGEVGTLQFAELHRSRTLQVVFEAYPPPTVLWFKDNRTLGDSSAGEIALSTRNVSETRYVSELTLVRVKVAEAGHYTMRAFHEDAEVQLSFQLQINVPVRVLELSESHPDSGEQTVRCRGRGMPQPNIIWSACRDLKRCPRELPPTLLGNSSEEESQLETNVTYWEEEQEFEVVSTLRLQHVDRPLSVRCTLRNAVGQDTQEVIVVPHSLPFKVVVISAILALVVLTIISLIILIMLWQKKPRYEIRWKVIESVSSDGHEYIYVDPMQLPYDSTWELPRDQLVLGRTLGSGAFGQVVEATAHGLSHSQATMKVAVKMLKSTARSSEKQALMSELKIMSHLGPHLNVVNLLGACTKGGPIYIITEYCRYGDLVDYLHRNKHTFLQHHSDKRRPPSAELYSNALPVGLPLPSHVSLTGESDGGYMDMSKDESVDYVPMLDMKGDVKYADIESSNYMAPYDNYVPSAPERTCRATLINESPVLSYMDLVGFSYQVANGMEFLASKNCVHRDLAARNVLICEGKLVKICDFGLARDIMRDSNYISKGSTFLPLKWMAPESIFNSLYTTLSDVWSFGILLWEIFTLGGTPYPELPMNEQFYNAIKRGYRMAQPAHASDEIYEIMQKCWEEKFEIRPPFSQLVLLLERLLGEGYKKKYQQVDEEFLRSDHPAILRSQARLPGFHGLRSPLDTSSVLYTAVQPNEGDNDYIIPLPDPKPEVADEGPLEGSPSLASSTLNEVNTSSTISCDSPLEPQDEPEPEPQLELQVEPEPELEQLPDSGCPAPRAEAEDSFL
Sequence of Serine/threonine-protein kinase pim-1 (P11309 whole entry): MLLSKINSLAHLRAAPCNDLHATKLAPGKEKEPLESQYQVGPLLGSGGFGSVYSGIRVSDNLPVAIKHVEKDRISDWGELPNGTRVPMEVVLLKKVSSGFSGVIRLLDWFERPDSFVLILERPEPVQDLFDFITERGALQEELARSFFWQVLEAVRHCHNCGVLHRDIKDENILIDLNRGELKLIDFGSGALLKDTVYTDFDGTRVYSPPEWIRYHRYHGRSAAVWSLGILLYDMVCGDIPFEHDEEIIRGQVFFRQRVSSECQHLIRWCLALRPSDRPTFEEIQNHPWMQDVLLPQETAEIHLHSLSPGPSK
T2 sequence (O43614 whole entry): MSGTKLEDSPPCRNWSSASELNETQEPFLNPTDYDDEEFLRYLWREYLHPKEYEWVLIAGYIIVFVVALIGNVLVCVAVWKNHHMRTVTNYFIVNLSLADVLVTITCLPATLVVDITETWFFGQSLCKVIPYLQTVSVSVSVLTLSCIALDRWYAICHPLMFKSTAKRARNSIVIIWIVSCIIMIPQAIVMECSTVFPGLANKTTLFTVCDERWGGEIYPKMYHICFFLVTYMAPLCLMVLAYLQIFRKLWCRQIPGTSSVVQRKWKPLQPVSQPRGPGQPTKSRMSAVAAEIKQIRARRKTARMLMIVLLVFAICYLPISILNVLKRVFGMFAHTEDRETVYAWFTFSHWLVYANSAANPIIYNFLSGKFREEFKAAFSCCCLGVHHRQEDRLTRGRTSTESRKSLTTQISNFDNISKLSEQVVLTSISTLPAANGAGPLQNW
Sequence of Dual specificity protein kinase CLK4 (Q9HAZ1 whole entry): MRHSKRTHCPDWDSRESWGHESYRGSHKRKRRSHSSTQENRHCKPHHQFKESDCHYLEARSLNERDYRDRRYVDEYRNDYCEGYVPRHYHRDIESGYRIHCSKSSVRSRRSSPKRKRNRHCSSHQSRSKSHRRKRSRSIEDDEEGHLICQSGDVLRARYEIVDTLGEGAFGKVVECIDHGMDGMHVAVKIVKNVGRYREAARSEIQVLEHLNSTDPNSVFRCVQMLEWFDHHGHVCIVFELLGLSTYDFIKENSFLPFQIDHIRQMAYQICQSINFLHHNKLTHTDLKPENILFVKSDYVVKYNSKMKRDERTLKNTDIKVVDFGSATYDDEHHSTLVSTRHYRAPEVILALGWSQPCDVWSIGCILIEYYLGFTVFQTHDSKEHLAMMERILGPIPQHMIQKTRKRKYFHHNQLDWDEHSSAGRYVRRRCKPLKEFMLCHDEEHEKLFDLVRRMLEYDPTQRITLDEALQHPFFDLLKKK
Sequence of Vascular endothelial growth factor receptor 2 (P35968 whole entry): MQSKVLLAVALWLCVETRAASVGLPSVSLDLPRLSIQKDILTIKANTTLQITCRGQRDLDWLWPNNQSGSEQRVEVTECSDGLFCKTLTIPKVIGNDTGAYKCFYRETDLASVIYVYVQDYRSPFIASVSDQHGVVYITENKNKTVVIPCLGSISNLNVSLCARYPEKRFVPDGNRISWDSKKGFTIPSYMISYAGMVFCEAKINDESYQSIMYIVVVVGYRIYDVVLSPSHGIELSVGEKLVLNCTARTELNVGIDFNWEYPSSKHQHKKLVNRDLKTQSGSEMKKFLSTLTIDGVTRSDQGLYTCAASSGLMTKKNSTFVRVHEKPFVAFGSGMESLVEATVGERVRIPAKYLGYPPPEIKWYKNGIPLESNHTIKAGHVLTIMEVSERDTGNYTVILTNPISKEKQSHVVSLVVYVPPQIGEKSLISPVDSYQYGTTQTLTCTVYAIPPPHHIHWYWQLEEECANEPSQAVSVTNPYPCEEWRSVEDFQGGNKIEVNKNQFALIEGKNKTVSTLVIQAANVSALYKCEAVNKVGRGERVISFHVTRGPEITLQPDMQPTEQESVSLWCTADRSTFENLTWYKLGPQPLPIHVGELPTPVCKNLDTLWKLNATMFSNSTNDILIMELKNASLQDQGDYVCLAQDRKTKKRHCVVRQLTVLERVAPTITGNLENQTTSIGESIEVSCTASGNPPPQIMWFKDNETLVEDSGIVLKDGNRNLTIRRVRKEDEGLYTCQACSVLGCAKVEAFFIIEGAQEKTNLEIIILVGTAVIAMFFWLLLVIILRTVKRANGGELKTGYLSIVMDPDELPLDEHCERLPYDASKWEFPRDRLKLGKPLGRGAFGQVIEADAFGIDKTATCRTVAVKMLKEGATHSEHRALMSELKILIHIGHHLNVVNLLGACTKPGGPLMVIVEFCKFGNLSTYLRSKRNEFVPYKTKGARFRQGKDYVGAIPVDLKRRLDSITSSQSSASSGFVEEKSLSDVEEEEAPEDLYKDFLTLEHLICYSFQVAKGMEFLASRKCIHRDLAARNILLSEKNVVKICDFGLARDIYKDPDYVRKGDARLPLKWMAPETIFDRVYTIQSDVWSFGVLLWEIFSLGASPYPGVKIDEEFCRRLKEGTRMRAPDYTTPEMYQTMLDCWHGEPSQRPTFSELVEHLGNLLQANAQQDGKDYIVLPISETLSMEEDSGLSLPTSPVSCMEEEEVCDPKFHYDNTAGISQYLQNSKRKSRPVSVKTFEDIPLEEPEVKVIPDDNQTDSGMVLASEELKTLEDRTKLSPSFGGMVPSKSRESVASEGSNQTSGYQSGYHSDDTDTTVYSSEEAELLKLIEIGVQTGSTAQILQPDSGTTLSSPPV
Sequence of Cyclin-dependent kinase 8 (P49336 whole entry): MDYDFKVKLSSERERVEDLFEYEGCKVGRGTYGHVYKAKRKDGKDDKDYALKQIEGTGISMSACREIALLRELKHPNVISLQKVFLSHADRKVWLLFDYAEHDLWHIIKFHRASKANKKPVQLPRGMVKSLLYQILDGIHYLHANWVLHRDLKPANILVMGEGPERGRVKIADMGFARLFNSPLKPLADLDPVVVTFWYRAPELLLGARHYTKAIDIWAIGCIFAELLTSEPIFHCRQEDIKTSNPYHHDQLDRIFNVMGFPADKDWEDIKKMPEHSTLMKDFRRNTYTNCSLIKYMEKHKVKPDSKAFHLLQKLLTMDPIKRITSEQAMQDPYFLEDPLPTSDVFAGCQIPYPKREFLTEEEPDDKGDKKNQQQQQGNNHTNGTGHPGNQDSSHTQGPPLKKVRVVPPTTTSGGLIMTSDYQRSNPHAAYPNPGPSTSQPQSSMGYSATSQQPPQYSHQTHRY
Sequence of Cyclin-dependent kinase 19 (Q9BWU1 whole entry): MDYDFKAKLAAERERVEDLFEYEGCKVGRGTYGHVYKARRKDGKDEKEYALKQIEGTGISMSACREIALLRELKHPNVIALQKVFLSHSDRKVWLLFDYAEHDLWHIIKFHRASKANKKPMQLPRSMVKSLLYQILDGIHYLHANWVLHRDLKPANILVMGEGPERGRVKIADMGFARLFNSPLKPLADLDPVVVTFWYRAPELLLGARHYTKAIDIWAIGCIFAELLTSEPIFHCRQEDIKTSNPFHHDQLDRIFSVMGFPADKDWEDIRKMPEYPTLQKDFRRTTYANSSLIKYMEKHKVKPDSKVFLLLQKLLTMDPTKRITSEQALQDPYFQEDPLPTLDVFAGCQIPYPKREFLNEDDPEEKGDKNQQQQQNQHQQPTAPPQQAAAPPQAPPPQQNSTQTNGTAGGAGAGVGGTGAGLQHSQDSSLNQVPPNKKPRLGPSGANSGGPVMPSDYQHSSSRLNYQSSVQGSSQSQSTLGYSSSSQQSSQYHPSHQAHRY

SMILES: CCn1c2ccccc2c2cc(NC(=O)c3cc(OC)cc(OC)c3)ccc21
EC50 [1]: 0.431 µM (active)
EC50 [2]: 22.8 µM (active)
EC50 [3]: 0.365 µM (inconclusive)
EC50 [4]: 0.545 µM (active)
IC50 [5]: > 66.2 µM (inactive)
AC50 [6]: < 0.16 µM (active)
IC50 [7]: > 49.8 µM (inactive)
IC50 [8]: 0.554 µM (active)
IC50 [9]: > 80 µM (inactive)
IC50 [10]: 1.38 µM (active)
IC50 [11]: 21.7 µM (inactive)
IC50 [12]: > 50 µM (inactive)
AC50 [13]: 4.74 µM (active)

SMILES: COc1cc2c(cc1NC(=O)CSc1nnc(Cc3cccs3)n1Cc1ccco1)oc1ccccc12
EC50 [35]: 0.011 µM (active)

SMILES: CN(C)CCCN(C)C(=O)C1Cc2[nH]cnc2C2(CCCCC2)N1 (stereo unspecified)
Ki [36]: 2.51 µM (active)
Ki [37]: 3.16 µM (active)

SMILES: COc1cc(Nc2ncc3c(n2)-c2ccc(Cl)cc2C(c2c(F)cccc2OC)=NC3)ccc1C(=O)O [ALISERTIB]
Ki [46]: 0.316 µM (active)
Ki [47]: > 3.98 µM (inactive)
Ki [48]: 0.316 µM (active)
Ki [23]: > 1 µM (inactive)
Ki [49]: > 1 µM (inactive)
Ki [50]: 1 µM (active)
Ki [32]: 0.631 µM (active)
Ki [51]: 0.398 µM (active)

Results, then the compound that gave them:

Ki [14]: > 100 µM (inactive)
Ki [15]: > 79.4 µM (inactive)
Ki [16]: > 100 µM (inactive)
Ki [17]: > 39.8 µM (inactive)
Ki [18]: 79.4 µM (active)
Ki [19]: > 63.1 µM (inactive)
Ki [20]: > 50.1 µM (inactive)
Ki [21]: > 50.1 µM (inactive)
Ki [22]: 50.1 µM (active)
Ki [23]: > 79.4 µM (inactive)
Ki [24]: 3.16 µM (active)
Ki [25]: > 79.4 µM (inactive)
Ki [26]: > 100 µM (inactive)
Ki [27]: 79.4 µM (active)
Ki [28]: > 79.4 µM (inactive)
Ki [29]: > 100 µM (inactive)
Ki [30]: > 79.4 µM (inactive)
Ki [31]: > 63.1 µM (inactive)
Ki [32]: > 50.1 µM (inactive)
Ki [33]: > 63.1 µM (inactive)
Ki [34]: > 79.4 µM (inactive)
SMILES: O=C(Nc1ccccc1)Nc1ccccn1

Ki [18]: 2.51 µM (active)
Ki [38]: 0.00501 µM (active)
Ki [39]: 0.00398 µM (active)
Ki [40]: 0.0398 µM (active)
Ki [41]: 0.00501 µM (active)
Ki [31]: 0.0398 µM (active)
Ki [32]: 0.2 µM (active)
Ki [42]: 0.0251 µM (active)
SMILES: NC(=O)c1ccccc1Nc1nc(Nc2ccccc2)ncc1C(F)(F)F

Ki [43]: 50.1 µM (active)
Ki [44]: 50.1 µM (active)
Ki [45]: 31.6 µM (active)
SMILES: CC(C)(O)c1c(-c2ccccc2)n[nH]c(=O)c1N
